The text below walks through data of PMC8942502 (Journal of Enzyme Inhibition and Medicinal Chemistry, 2022).

The term IC50 denotes the midpoint of a concentration-inhibition curve. One may read the melting point as the temperature of the solid-liquid transition.

Structures are written as SMILES. Some results are limits rather than exact numbers.

For data set [1], the target named is T1, hMAO-A (Homo sapiens, UniProt P21397).
T1 construct: purchased Sigma-Aldrich
T1 sequence (P21397 1-527): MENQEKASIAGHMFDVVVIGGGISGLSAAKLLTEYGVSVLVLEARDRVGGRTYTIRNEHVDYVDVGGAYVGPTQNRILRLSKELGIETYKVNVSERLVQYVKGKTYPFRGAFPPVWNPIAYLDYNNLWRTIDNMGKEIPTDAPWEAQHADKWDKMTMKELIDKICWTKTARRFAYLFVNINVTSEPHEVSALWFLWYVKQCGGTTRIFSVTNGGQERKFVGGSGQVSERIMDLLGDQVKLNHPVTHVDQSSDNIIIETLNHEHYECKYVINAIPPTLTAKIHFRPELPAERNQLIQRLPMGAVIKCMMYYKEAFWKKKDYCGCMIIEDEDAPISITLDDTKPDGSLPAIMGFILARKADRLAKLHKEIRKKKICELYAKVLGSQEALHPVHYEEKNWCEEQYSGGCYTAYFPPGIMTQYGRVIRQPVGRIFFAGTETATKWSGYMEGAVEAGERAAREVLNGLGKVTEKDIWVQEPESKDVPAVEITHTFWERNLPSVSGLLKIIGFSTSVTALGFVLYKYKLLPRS
In words: Anti-MAO assay (Amplex Red, p-tyramine). Format: biochemical. The conditions noted are these: for MAO Selectivity Index: IC50 MAO-B/IC50 MAO-A; for IC50: mean ± SD, n = 3.

The target in data set [2] is T2, LSD1-CoREST complex (Homo sapiens, UniProt O60341).
T2 construct: made in house; host or cells: Escherichia coli
In words: LSD1-CoREST inhibition assay (Amplex UltraRed/HRP, H3K4 peptide). Format: biochemical. The conditions noted are these: for IC50: mean ± SD from two experiments in duplicate, 10 min preincubation; for fold drop of anti-LSD1 potency compared with phenyl analogue: para compounds vs 1a, meta compound vs 1b.

The target of data set [3] is T3, hMAO-B (Homo sapiens, UniProt P27338).
T3 construct: purchased Sigma-Aldrich
T3 sequence (P27338 1-520): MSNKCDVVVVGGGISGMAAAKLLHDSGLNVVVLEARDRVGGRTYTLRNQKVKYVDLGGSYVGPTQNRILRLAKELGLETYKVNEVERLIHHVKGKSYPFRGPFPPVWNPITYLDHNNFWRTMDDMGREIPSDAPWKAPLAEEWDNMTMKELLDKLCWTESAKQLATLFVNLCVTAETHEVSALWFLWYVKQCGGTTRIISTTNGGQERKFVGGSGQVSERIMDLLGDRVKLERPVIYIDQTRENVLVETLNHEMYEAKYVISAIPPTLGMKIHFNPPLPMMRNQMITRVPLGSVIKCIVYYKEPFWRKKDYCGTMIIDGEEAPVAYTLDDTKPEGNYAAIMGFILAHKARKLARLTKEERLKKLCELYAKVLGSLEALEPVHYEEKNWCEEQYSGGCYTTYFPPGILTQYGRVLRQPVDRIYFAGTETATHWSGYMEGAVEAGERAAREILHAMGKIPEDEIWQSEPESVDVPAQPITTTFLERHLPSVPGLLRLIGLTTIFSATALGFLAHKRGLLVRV
Description: Anti-MAO assay (Amplex Red, p-tyramine). It counts as biochemical. The following applies: mean ± SD, n = 3.

Data set [4] relates to LNCaP cells. Description: MTT cell viability assay. The conditions noted are these: Homo sapiens. It counts as cell-based. As for the experimental part:
(§1) The tested compounds have been dissolved in DMSO at […] as stock concentration. All compounds have been tested at 10 μM and 50 μM as final concentrations for WB analysis. All compounds have been used at 0.1 μM, 5 μM, 10 μM, 25 μM, 50 μM as final concentration for proliferation assays. ORY-1001 (Selleck Catalog No. S7795) was used as reference compound at the concentration of 25 μM.
(§2) Cell culture LNCaP and U937 were purchased from ATCC (Milan, Italy). LNCaP were grown in Roswell Park Memorial Institute culture medium (RPMI; EuroClone, Milan, Italy), supplemented with 10% heat-inactivated foetal bovine serum (FBS; Sigma-Aldrich, Schnellendorf, Germany), antimicrobials (100 U/mL penicillin, 100 µg/mL streptomycin, 250 ng/mL amphotericin-B), 2 mM L-glutamine (EuroClone, Milan, Italy), and 1% essential amino acids solution (MEM; EuroClone, Milan, Italy). U937 were cultured in Dulbecco’s Modified Eagle Medium (DMEM; EuroClone, Milan, Italy), supplemented with 10% heat-inactivated foetal bovine serum (FBS; Sigma-Aldrich, Schnellendorf, Germany), antimicrobials (100 U/mL penicillin, 100 µg/mL streptomycin, 250 ng/mL amphotericin-B), 2 mM L-glutamine (EuroClone). Cells have grown in standard incubator conditions at 37 °C and 5% CO2.
(§3) Cell viability was determined on LNCaP and U937 cell lines using Thiazolyl Blue Tetrazolium Bromide [3-(4,5-dimethylthiazol-2-yl)-2,5-diphenyltetrazolium bromide] (MTT; Sigma-Aldrich, Schnellendorf, Germany) assay, following manufacturer’s instructions. A total of 5 × 10^3 cells/well were plated in a 96-well plate and treated, in duplicates, and repeated for three times, with the tested compounds at different concentrations 0.1 μM, 5 μM, 10 μM, 25 μM, 50 μM as final concentrations for 48 h, and 72 h. […] Absorbance was read at a wavelength of 570 nm with a TECAN M − 200 reader (Tecan, Männedorf, Switzerland).

Data set [5] relates to U937 cells. In words: MTT cell viability assay. It counts as cell-based. The conditions noted are these: 0.1-50 μM, 48 and 72 h. The method, then: as §1, §2, §3
(In general: Tetrazolium dyes change colour on reduction, which living cells bring about.)

Data set [6] relates to LSD1-CoREST complex. Description: LSD1-CoREST inhibition assay (Amplex UltraRed/HRP, H3K4 peptide). Format: biochemical, human. The following applies: for LSD1 selectivity vs MAO-A: IC50 MAO-A/IC50 LSD1; for LSD1 selectivity vs MAO-B: IC50 MAO-B/IC50 LSD1.
Data set [7] deals with LSD1. The following applies: Figure 1; cited from earlier work.
The subject of data set [8] is MAO-A. The conditions noted are these: Figure 1; cited from earlier work.
In data set [9] the test system is MAO-B. The conditions noted are these: Figure 1; cited from earlier work.

As for `Cl.NC1CC1c1ccc(NC(=O)c2ccc(-c3ccoc3)cc2)cc1` (stereo not shown) [3a, N-(4-(2-Aminocyclopropyl)phenyl)-4-(furan-3-yl)benzamide hydrochloride], the “MAO Selectivity Index” value in data set [1] is given as 0.6. Also, the IC50 turned out to be 160 ± 14 nM in data set [1], 2340 ± 225 nM in [2] and 93 ± 8 nM in [3].

Regarding `Cl.NC1CC1c1ccc(NC(=O)c2ccc(-c3ccncc3)cc2)cc1` (stereo not shown) [6a, N-(4-(2-Aminocyclopropyl)phenyl)-4-(pyridin-4-yl)benzamide hydrochloride], the melting point was above 250 °C. For the same compound, in [1], the “MAO Selectivity Index” value was found to be 5.2 and the IC50 stood at 69 ± 6 nM. Besides, in [2], the half-inhibitory concentration (IC50) came out at 13900 ± 3060 nM and the “fold drop of anti-LSD1 potency compared with phenyl analogue” value worked out at 73 fold. This compound came in with an IC50 in data set [3] of 358 ± 31 nM.

Compound `Cl.NC1CC1c1ccc(NC(=O)c2cccc(-c3ccco3)c2)cc1` (stereo not shown) [2b, N-(4-(2-Aminocyclopropyl)phenyl)-3-(furan-2-yl)benzamide hydrochloride] returned a melting point of 208 to 210 °C. Besides, in data set [1], the “MAO Selectivity Index” value is reported as 9.5 and 93 ± 8 nM corresponded to half-maximal inhibition (IC50). Besides, the IC50 in data set [4] (48 h) is 27600 ± 9800 nM. The IC50 in [4] (72 h) was 18500 ± 2700 nM. Further, the “effect on cell viability in U937 cells” value in data set [5] was “almost ineffective”. In addition, in data set [6], the “LSD1 selectivity vs MAO-A” value was found to be 0.8 and the “LSD1 selectivity vs MAO-B” value was 8.1. Moreover, the midpoint of inhibition in data set [2], the IC50, lay at 110 ± 44 nM. Half-maximal inhibition in [3] (IC50) required 888 ± 77 nM.

The compound `Cl.NC1CC1c1ccc(NC(=O)c2ccc(-c3cccs3)cc2)cc1` (stereo not shown) [4a, N-(4-(2-Aminocyclopropyl)phenyl)-4-(thiophen-2-yl)benzamide hydrochloride] gave a melting point above 250 °C. In [1], the “MAO Selectivity Index” value is on record as 1.3 and the IC50 is 25 ± 2 nM. The compound also registered an IC50 in [2] of 1080 ± 359 nM. The compound further registered an IC50 in data set [3] of 32 ± 3 nM.

Regarding `Cl.NC1CC1c1ccc(NC(=O)c2ccc(-c3ccco3)cc2)cc1` (stereo not shown) [2a, N-(4-(2-Aminocyclopropyl)phenyl)-4-(furan-2-yl)benzamide hydrochloride], in data set [1], the “MAO Selectivity Index” value was found to be 1.7. Moreover, the IC50 in [1] was determined as 43 ± 4 nM; in data set [2] it was 2000 ± 528 nM; in data set [3], 73 ± 6 nM.

In turn, `Cl.NC1CC1c1ccc(NC(=O)c2cccc(-c3ccncc3)c2)cc1` (stereo not shown) [6b, N-(4-(2-Aminocyclopropyl)phenyl)-3-(pyridin-4-yl)benzamide hydrochloride] gave a melting point above 250 °C. In addition, in data set [1], the “MAO Selectivity Index” value turned out to be 66 and the IC50 amounted to 159 ± 14 nM. Also, in data set [6], the “LSD1 selectivity vs MAO-A” value is 0.3 and the “LSD1 selectivity vs MAO-B” value is 18.2. For the same compound, in data set [2], the IC50 is 572 ± 157 nM and the “fold drop of anti-LSD1 potency compared with phenyl analogue” value is 4 fold. This compound also registered an IC50 in [3] of 10400 ± 300 nM.

Regarding `Cl.NC1CC1c1ccc(NC(=O)c2ccc(-c3ccsc3)cc2)cc1` (stereo not shown) [5a, N-(4-(2-Aminocyclopropyl)phenyl)-4-(thiophen-3-yl)benzamide hydrochloride], the “MAO Selectivity Index” value in data set [1] stood at 1.6. For the same compound, the IC50 in data set [1] was found to be 42 ± 4 nM; in [4] (48 h), 26500 ± 4800 nM; in data set [4] (72 h) it was 17900 ± 1600 nM; in [2], 341 ± 106 nM; in data set [3], 67 ± 6 nM. Besides, in [5], the “effect on cell viability in U937 cells” value is given as “the most potent”.

`Cl.NC1CC1c1ccc(NC(=O)c2cccc(-c3ccoc3)c2)cc1` (stereo not shown) [3b, N-(4-(2-Aminocyclopropyl)phenyl)-3-(furan-3-yl)benzamide hydrochloride]: the melting point was 235 to 238 °C. In addition, in data set [1], the “MAO Selectivity Index” value is reported as 0.5 and the IC50 was 1120 ± 97 nM. The compound also gave an IC50 in [4] (48 h) of 12400 ± 6100 nM. In data set [4] (72 h), the 50% inhibitory concentration (IC50) amounted to 13400 ± 3700 nM. Also, in [5], the “effect on cell viability in U937 cells” value was “the most potent”. Besides, in data set [6], the “LSD1 selectivity vs MAO-A” value was 5.1 and the “LSD1 selectivity vs MAO-B” value worked out at 2.3. For the same compound, inhibition in data set [2] was half-maximal at 221 ± 23 nM (IC50). The same compound came in with a half-inhibitory concentration (IC50) in [3] of 519 ± 36 nM.

As to `NC1CC1c1ccc(NC(=O)c2ccccc2)cc1` (stereo not shown) [MC2584, reference compound], the values for the concentration for half-maximal inhibition (IC50) in data set [7], in data set [8] and in data set [9] were 19 nM, 31 nM and 8980 nM, respectively.

Compound `Cl.NC1CC1c1ccc(NC(=O)c2cccc(-c3cccs3)c2)cc1` (stereo not shown) [4b, N-(4-(2-Aminocyclopropyl)phenyl)-3-(thiophen-2-yl)benzamide hydrochloride] showed a melting point of 245 to 248 °C. Also, in [1], the “MAO Selectivity Index” value is given as 15.3 and the midpoint of inhibition, the IC50, lay at 24 ± 2 nM. The compound also came in with an IC50 in data set [4] (48 h) of 25700 ± 8300 nM. Besides, the midpoint of inhibition in [4] (72 h), the IC50, lay at 15200 ± 3500 nM. Moreover, the “effect on cell viability in U937 cells” value in data set [5] is “almost ineffective”. For the same compound, in [6], the “LSD1 selectivity vs MAO-A” value stood at 1.6 and the “LSD1 selectivity vs MAO-B” value is on record as 24.4. Moreover, in data set [2], 15 ± 3 nM corresponded to half-maximal inhibition (IC50). For the same compound, the IC50 in data set [3] came out at 366 ± 32 nM.

Take `Cl.NC1CC1c1ccc(NC(=O)c2cccc(-c3ccccc3)c2)cc1` (stereo not shown) [1b, N-(4-(2-Aminocyclopropyl)phenyl)-[1,1′-biphenyl]-3-carboxamide hydrochloride]: the melting point is above 250 °C. Besides, in data set [1], the “MAO Selectivity Index” value was 11.7 and the IC50 was 28 ± 2 nM. In data set [4] (48 h), this compound gave an IC50 of 22800 ± 5100 nM. In [4] (72 h), the IC50 worked out at 9900 ± 1700 nM. In addition, in data set [5], the “effect on cell viability in U937 cells” value is on record as “the most potent”. Further, in data set [6], the “LSD1 selectivity vs MAO-A” value stood at 0.2 and the “LSD1 selectivity vs MAO-B” value is 2.2. This compound came in with an IC50 in [2] of 149 ± 43 nM. Besides, the “fold higher potency against LSD1 of meta regioisomer than para counterpart” value in [2] (meta vs para) was determined as 1.3 fold. The same compound displayed an IC50 in data set [3] of 327 ± 28 nM.

In turn, `Cl.NC1CC1c1ccc(NC(=O)c2cccc(-c3ccsc3)c2)cc1` (stereo not shown) [5b, N-(4-(2-Aminocyclopropyl)phenyl)-3-(thiophen-3-yl)benzamide hydrochloride] displayed a melting point above 250 °C. This compound also had a half-inhibitory concentration (IC50) in data set [1] of 28 ± 2 nM. This compound had an IC50 in data set [4] (48 h) of 32100 ± 7800 nM. In data set [4] (72 h), the IC50 came out at 17200 ± 3500 nM. The “effect on cell viability in U937 cells” value in [5] is on record as “the most potent”. The IC50 in [2] is 5 ± 0.8 nM. The IC50 in data set [3] is 820 ± 71 nM.
